Reference: publication PMC4535329 (Bioorganic & medicinal chemistry letters, 2015)
pIC50: −log10 of the molar value. ≈ marks a conversion by molar mass, not a printed value. Each block holds one molecule with its values, some of them ahead of it.

Experiments:
mGlu4 = mGlu4 (Homo sapiens, UniProt Q14833); assay: mGlu selectivity; format: cell-based
[1] = tested on: amphetamine-induced hyperlocomotion (AHL); assay: Reversal of amphetamine-induced hyperlocomotion; format: in vivo, male, Sprague Dawley rats
mGlu7 = mGlu7 (Homo sapiens, UniProt Q14831); assay: mGlu selectivity; format: cell-based
mGlu8 = mGlu8 (Homo sapiens, UniProt O00222); assay: mGlu selectivity; format: cell-based
mGlu6 = mGlu6 (Homo sapiens, UniProt O15303); assay: mGlu selectivity; format: cell-based
Solubility = format: physicochemical
mGlu1 = mGlu1 (Homo sapiens, UniProt Q13255); assay: mGlu selectivity; format: cell-based
Ca channel = assay: Cardiovascular safety pharmacology: Ca channel; format: cell-based; conditions: read-out: Ca channel IC50
mGlu2 = mGlu2 (Homo sapiens, UniProt Q14416); assay: mGlu selectivity; format: cell-based
Na channel = assay: Cardiovascular safety pharmacology: Na channel; format: cell-based; conditions: read-out: Na channel IC50
mGlu3 = mGlu3 (Homo sapiens, UniProt Q14832); assay: mGlu selectivity: mGlu3 antagonist activity; format: cell-based
human mGlu5 = human mGlu5 (Homo sapiens, UniProt P41594); assay: Calcium mobilization assay using HEK293 expressing human mGlu5; format: cell-based
[2] = Predicted hepatic clearance; format: in vitro ADME; conditions: human
mGlu5 = assay: Leftward fold-shift of a full glutamate concentration-response curve; format: cell-based; conditions: human and rat receptors, equal magnitude
[3] = Predicted hepatic clearance; format: in vitro ADME; conditions: rat

Chain of human mGlu5 (P41594 21-1212): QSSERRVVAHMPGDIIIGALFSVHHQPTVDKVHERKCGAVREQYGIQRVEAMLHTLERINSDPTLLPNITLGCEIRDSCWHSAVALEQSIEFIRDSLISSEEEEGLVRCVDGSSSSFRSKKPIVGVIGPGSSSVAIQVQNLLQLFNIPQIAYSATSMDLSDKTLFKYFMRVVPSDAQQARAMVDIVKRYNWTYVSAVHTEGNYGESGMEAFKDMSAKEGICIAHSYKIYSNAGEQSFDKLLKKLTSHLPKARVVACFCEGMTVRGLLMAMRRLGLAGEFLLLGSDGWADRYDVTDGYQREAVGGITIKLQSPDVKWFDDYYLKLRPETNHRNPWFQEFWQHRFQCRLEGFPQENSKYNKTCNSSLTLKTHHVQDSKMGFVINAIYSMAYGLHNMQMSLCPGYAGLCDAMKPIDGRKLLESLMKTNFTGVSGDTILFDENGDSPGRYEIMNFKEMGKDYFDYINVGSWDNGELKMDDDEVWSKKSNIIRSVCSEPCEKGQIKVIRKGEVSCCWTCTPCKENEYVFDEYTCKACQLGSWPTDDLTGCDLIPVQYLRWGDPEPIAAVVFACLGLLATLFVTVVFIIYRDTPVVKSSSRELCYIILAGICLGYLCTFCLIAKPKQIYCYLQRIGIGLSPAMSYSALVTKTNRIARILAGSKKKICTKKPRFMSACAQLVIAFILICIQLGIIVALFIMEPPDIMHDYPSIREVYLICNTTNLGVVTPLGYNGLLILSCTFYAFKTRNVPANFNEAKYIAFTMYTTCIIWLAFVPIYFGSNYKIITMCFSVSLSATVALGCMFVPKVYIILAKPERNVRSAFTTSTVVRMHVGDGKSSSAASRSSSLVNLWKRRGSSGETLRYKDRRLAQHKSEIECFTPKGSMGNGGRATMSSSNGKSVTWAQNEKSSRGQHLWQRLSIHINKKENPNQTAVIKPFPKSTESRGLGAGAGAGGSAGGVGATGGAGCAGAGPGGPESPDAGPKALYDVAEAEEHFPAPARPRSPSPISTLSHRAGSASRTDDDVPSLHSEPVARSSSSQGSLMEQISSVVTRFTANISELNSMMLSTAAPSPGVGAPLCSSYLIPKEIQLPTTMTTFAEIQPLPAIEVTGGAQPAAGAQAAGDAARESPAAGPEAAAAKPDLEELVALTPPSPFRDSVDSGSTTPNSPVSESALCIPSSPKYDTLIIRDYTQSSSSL
Chain of mGlu3 (Q14832 23-879): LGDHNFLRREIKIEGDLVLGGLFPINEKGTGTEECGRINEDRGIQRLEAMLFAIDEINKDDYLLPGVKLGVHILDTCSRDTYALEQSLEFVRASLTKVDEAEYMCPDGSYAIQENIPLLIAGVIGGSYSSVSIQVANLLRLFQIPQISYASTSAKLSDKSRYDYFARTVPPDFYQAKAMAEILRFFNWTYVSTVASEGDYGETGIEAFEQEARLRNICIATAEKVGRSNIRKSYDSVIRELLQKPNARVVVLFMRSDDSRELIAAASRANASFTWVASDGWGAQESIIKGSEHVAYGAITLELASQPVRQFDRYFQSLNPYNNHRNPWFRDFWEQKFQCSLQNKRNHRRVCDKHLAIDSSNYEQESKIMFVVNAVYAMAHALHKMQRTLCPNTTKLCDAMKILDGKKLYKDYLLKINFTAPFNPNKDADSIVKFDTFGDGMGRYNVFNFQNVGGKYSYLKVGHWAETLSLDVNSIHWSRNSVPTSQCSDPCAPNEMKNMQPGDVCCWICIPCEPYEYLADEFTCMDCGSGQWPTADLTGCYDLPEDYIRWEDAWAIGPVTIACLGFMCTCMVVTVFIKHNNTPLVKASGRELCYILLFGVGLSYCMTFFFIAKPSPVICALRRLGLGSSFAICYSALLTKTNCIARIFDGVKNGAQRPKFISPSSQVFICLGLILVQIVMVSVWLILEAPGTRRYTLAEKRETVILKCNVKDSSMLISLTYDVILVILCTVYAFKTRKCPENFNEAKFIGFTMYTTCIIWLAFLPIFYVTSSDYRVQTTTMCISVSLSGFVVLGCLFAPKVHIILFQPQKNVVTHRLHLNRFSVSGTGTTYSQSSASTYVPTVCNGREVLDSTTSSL
Chain of mGlu4 (Q14833 33-912): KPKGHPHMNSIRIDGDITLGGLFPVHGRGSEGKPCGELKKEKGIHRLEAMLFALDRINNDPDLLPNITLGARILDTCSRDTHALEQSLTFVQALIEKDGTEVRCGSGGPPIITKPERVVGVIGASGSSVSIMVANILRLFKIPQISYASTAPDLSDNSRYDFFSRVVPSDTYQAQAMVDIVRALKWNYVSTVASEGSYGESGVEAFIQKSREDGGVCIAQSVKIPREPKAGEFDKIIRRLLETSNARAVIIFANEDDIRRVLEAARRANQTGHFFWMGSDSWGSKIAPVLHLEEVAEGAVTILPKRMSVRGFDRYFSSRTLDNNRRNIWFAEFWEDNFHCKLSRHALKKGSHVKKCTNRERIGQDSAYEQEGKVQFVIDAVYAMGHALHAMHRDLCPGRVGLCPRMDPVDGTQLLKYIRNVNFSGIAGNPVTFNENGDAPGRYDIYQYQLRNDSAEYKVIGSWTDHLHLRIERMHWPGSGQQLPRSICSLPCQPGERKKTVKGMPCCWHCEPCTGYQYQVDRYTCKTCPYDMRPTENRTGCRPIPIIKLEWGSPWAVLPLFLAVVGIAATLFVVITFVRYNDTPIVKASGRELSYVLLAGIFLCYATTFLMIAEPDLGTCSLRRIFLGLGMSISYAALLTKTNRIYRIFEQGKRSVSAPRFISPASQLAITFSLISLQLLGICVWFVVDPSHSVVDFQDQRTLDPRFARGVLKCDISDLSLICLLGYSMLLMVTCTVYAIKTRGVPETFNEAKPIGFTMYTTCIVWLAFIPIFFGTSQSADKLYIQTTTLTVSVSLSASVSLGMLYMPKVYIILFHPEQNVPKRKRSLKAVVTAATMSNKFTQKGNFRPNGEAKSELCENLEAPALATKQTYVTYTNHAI
Chain of mGlu6 (O15303 25-877): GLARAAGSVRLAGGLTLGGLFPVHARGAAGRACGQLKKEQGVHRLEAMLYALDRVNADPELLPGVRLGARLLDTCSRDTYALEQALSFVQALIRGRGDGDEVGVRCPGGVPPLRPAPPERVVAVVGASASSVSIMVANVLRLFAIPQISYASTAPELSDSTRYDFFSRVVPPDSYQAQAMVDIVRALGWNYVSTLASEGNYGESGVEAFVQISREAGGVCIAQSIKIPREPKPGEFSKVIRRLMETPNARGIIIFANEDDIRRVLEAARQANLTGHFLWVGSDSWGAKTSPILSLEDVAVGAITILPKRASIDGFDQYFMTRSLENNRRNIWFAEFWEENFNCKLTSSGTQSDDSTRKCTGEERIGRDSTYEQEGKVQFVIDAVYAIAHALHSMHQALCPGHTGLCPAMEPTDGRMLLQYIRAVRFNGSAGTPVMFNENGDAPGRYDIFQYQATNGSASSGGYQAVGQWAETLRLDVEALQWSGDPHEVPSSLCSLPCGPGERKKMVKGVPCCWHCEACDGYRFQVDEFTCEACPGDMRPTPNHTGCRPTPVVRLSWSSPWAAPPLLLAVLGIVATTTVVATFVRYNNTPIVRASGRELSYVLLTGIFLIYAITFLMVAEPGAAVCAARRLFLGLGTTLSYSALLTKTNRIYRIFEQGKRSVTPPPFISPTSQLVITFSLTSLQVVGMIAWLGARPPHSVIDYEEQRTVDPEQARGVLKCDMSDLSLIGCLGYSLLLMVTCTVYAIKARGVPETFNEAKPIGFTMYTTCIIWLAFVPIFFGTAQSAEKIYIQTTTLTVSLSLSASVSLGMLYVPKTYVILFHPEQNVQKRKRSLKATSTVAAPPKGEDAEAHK
Chain of mGlu7 (Q14831 35-915): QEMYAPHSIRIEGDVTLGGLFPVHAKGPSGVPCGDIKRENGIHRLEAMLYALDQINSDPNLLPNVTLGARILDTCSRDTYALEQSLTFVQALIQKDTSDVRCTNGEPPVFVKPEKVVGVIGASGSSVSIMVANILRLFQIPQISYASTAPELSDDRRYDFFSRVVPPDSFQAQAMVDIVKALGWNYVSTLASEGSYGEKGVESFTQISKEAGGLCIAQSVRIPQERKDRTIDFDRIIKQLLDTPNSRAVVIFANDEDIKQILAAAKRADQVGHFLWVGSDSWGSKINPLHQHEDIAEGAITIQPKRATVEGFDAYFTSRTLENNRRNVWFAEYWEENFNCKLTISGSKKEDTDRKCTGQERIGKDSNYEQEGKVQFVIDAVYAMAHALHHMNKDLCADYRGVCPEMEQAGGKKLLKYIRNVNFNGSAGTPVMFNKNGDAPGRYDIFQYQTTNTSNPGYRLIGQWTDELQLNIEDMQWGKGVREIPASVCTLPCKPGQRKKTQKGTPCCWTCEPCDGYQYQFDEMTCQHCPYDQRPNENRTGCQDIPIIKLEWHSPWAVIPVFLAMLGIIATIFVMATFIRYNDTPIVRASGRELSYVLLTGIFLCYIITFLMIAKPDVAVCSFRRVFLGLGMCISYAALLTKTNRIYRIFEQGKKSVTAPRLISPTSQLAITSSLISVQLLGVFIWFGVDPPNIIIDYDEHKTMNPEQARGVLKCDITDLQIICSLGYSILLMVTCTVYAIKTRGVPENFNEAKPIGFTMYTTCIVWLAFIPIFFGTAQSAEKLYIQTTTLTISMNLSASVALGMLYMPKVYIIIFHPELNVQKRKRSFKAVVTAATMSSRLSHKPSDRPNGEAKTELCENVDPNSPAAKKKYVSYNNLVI

- activity versus mGlu4 (mGlu4): > 10 µM
- activity versus mGlu7 (mGlu7): > 10 µM
- activity versus mGlu8 (mGlu8): > 10 µM
- activity versus mGlu6 (mGlu6): > 10 µM
- solubility (Solubility; FaSSIF): 0.01 mg/mL (≈ 27 µM)
- solubility (Solubility; SGF): 0.01 mg/mL (≈ 27 µM)
- solubility, fold lower than 1 (Solubility; relative to 1): 3 ×
- activity versus mGlu1 (mGlu1): > 10 µM
- activity versus mGlu2 (mGlu2): > 10 µM
- pIC50 (mGlu3): 6.39
- mGlu3 Glu min (mGlu3; % Glu min): 8%
Structure (SMILES): O=C(c1ccc(F)cc1)N1CCc2nc(COc3cccc(F)c3)oc2C1 [4b]
- minimum effective dose in AHL ([1]; rat, po): 30 mpk
- pIC50 (Ca channel): < 5.00
- pIC50 (Na channel): < 5.00

- mGlu5 PAM activity (in words) (human mGlu5): inactive
Structure (SMILES): O=C(c1cc2ccccc2[nH]1)N1CCc2nc(COc3ccccc3)oc2C1 [11a]

- solubility (in words) (Solubility): poor solubility
Structure (SMILES): O=C(c1c[nH]c2ccccc12)N1CCc2nc(COc3ccccc3)oc2C1 [11c]

- solubility (in words) (Solubility): poor solubility
Structure (SMILES): O=C(c1n[nH]c2ccccc12)N1CCc2nc(COc3ccccc3)oc2C1 [11e]

- predicted hepatic clearance CLhep [2]: 0.546 L/h/kg
- predicted hepatic clearance CLhep [3]: 2.16 L/h/kg
- ago-PAM activity (human mGlu5): modest ago-PAM activity
- ligand efficiency (human mGlu5): 0.31
Structure (SMILES): O=C(c1n[nH]c2ncccc12)N1CCc2nc(COc3ccccc3)oc2C1 [11h]
- MED in AHL, fold higher than for 1 ([1]; relative to 1): 3 fold
- fold-shift (mGlu5): 7.3–9.3 x
